In ChEMBL document CHEMBL4507287, “Data for DCP probe MRL-650” (2021):

What was measured:
[1] = biological target: Alpha-1A adrenergic receptor (Homo sapiens) (UniProt P35348); conditions: Compound concentration 10.0 uM
[2] = biological target: 5-hydroxytryptamine receptor 5A (Homo sapiens) (UniProt P47898); conditions: Compound concentration 10.0 uM
[3] = biological target: Kappa-type opioid receptor (Homo sapiens) (UniProt P41145); conditions: Compound concentration 10.0 uM
[4] = biological target: Serine/threonine-protein kinase 38 (Homo sapiens) (UniProt Q15208); conditions: Compound concentration 1000.0 nM
[5] = biological target: Vascular endothelial growth factor receptor 3 (Homo sapiens) (UniProt P35916); conditions: Compound concentration 1000.0 nM
[6] = biological target: Ephrin type-A receptor 8 (Homo sapiens) (UniProt P29322); conditions: Compound concentration 1000.0 nM
[7] = biological target: Tyrosine-protein kinase FRK (Homo sapiens) (UniProt P42685); conditions: Compound concentration 1000.0 nM
[8] = biological target: Serine/threonine-protein kinase mTOR (Homo sapiens) (UniProt P42345); conditions: Compound concentration 1000.0 nM
[9] = biological target: Mitogen-activated protein kinase 9 (Homo sapiens) (UniProt P45984); conditions: Compound concentration 1000.0 nM
[10] = biological target: Proto-oncogene tyrosine-protein kinase Src (Homo sapiens) (UniProt P12931); conditions: Compound concentration 1000.0 nM
[11] = biological target: Mitogen-activated protein kinase 4 (Homo sapiens) (UniProt P31152); conditions: Compound concentration 1000.0 nM
[12] = biological target: Ephrin type-B receptor 1 (Homo sapiens) (UniProt P54762); conditions: Compound concentration 1000.0 nM
[13] = biological target: Calcium/calmodulin-dependent protein kinase type II subunit beta (Homo sapiens) (UniProt Q13554); conditions: Compound concentration 1000.0 nM
[14] = biological target: Bone morphogenetic protein receptor type-1A (Homo sapiens) (UniProt P36894); conditions: Compound concentration 1000.0 nM
[15] = biological target: Aurora kinase A (Homo sapiens) (UniProt O14965); conditions: Compound concentration 1000.0 nM
[16] = biological target: Alpha-2A adrenergic receptor (Homo sapiens) (UniProt P08913); conditions: Compound concentration 10.0 uM
[17] = biological target: Serine/threonine-protein kinase ULK3 (Homo sapiens) (UniProt Q6PHR2); conditions: Compound concentration 1000.0 nM
[18] = biological target: Casein kinase II subunit alpha (Homo sapiens) (UniProt P68400); conditions: Compound concentration 1000.0 nM
[19] = biological target: Tyrosine-protein kinase Fer (Homo sapiens) (UniProt P16591); conditions: Compound concentration 1000.0 nM
[20] = system: Tyrosine-protein kinase ABL1 (Homo sapiens), P00519 [T315I]; conditions: Compound concentration 1000.0 nM
[21] = system: Tyrosine-protein kinase ABL1 (Homo sapiens), P00519 [F317L]; conditions: Compound concentration 1000.0 nM
[22] = biological target: Mitogen-activated protein kinase kinase kinase kinase 3 (Homo sapiens) (UniProt Q8IVH8); conditions: Compound concentration 1000.0 nM
[23] = biological target: Muscarinic acetylcholine receptor M2 (Homo sapiens) (UniProt P08172); conditions: Compound concentration 10.0 uM
[24] = biological target: Serine/threonine-protein kinase WNK3 (Homo sapiens) (UniProt Q9BYP7); conditions: Compound concentration 1000.0 nM
[25] = biological target: Dual specificity mitogen-activated protein kinase kinase 4 (Homo sapiens) (UniProt P45985); conditions: Compound concentration 1000.0 nM
[26] = biological target: Serine/threonine-protein kinase PAK 5 (Homo sapiens) (UniProt Q9P286); conditions: Compound concentration 1000.0 nM
[27] = biological target: Hepatocyte growth factor receptor (Homo sapiens) (UniProt P08581); conditions: Compound concentration 1000.0 nM
[28] = system: Epidermal growth factor receptor (Homo sapiens), P00533 [L858R,T790M]; conditions: Compound concentration 1000.0 nM
[29] = biological target: Serine/threonine-protein kinase D2 (Homo sapiens) (UniProt Q9BZL6); conditions: Compound concentration 1000.0 nM
[30] = biological target: Serine/threonine-protein kinase SIK2 (Homo sapiens) (UniProt Q9H0K1); conditions: Compound concentration 1000.0 nM
[31] = biological target: Fibroblast growth factor receptor 4 (Homo sapiens) (UniProt P22455); conditions: Compound concentration 1000.0 nM
[32] = biological target: Serine/threonine-protein kinase WNK2 (Homo sapiens) (UniProt Q9Y3S1); conditions: Compound concentration 1000.0 nM
[33] = biological target: Ribosomal protein S6 kinase alpha-5 (Homo sapiens) (UniProt O75582); conditions: Compound concentration 1000.0 nM
[34] = biological target: Ephrin type-A receptor 7 (Homo sapiens) (UniProt Q15375); conditions: Compound concentration 1000.0 nM
[35] = biological target: Serine/threonine-protein kinase MARK2 (Homo sapiens) (UniProt Q7KZI7); conditions: Compound concentration 1000.0 nM
[36] = biological target: Inhibitor of nuclear factor kappa-B kinase subunit alpha (Homo sapiens) (UniProt O15111); conditions: Compound concentration 1000.0 nM
[37] = biological target: MAP/microtubule affinity-regulating kinase 4 (Homo sapiens) (UniProt Q96L34); conditions: Compound concentration 1000.0 nM
[38] = system: ALK tyrosine kinase receptor (Homo sapiens), Q9UM73 [C1156Y]; conditions: Compound concentration 1000.0 nM
[39] = biological target: Mitogen-activated protein kinase kinase kinase kinase 1 (Homo sapiens) (UniProt Q92918); conditions: Compound concentration 1000.0 nM
[40] = biological target: STE20/SPS1-related proline-alanine-rich protein kinase (Homo sapiens) (UniProt Q9UEW8); conditions: Compound concentration 1000.0 nM
[41] = biological target: Phosphatidylinositol 4,5-bisphosphate 3-kinase catalytic subunit gamma isoform (Homo sapiens) (UniProt P48736); conditions: Compound concentration 1000.0 nM
[42] = system: Mast/stem cell growth factor receptor Kit (Homo sapiens), P10721 [L576P]; conditions: Compound concentration 1000.0 nM
[43] = biological target: Casein kinase I isoform epsilon (Homo sapiens) (UniProt P49674); conditions: Compound concentration 1000.0 nM
[44] = biological target: Receptor tyrosine-protein kinase erbB-2 (Homo sapiens) (UniProt P04626); conditions: Compound concentration 1000.0 nM
[45] = biological target: Serine/threonine-protein kinase RIO2 (Homo sapiens) (UniProt Q9BVS4); conditions: Compound concentration 1000.0 nM

Sequence of Serine/threonine-protein kinase SIK2 (Homo sapiens) (Q9H0K1 whole entry, looked up): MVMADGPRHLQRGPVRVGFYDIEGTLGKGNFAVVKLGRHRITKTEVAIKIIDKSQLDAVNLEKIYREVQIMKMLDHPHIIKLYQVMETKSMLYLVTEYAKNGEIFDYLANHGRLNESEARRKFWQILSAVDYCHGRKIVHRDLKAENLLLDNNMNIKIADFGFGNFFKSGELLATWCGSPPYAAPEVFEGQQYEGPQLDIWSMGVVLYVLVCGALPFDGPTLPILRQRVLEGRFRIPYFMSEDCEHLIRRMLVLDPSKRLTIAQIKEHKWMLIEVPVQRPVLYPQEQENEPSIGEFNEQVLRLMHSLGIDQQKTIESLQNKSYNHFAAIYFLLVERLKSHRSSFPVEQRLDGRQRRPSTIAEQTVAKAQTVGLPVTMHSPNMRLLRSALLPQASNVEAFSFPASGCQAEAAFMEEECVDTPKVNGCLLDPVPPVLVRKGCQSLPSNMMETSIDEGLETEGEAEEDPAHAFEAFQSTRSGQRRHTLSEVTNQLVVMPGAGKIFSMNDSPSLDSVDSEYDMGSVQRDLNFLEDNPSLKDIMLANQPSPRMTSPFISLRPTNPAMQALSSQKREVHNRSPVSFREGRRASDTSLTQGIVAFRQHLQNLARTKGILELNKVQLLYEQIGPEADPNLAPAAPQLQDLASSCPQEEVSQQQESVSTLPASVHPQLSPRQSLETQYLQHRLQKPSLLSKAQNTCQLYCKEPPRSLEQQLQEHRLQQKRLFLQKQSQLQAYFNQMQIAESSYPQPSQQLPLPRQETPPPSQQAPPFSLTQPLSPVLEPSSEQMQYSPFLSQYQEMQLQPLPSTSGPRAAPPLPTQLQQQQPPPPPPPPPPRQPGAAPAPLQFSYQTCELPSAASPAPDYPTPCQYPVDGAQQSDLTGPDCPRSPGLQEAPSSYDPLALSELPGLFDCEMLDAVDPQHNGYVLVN
Sequence of Serine/threonine-protein kinase 38 (Homo sapiens) (Q15208 2-465 limits assumed): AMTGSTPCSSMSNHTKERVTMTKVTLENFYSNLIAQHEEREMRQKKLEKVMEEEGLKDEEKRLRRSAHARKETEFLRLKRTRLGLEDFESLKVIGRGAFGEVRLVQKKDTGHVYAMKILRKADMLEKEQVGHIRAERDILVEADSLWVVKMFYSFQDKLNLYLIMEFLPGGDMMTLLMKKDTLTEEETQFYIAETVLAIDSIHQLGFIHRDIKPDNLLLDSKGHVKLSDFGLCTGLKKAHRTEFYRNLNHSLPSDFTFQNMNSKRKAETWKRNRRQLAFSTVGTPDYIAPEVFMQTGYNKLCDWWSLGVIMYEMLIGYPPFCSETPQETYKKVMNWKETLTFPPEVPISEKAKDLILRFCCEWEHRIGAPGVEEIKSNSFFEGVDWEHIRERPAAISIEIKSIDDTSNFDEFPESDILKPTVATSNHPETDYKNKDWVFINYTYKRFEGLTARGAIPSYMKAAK
Sequence of Fibroblast growth factor receptor 4 (Homo sapiens) (P22455 22-802 limits assumed): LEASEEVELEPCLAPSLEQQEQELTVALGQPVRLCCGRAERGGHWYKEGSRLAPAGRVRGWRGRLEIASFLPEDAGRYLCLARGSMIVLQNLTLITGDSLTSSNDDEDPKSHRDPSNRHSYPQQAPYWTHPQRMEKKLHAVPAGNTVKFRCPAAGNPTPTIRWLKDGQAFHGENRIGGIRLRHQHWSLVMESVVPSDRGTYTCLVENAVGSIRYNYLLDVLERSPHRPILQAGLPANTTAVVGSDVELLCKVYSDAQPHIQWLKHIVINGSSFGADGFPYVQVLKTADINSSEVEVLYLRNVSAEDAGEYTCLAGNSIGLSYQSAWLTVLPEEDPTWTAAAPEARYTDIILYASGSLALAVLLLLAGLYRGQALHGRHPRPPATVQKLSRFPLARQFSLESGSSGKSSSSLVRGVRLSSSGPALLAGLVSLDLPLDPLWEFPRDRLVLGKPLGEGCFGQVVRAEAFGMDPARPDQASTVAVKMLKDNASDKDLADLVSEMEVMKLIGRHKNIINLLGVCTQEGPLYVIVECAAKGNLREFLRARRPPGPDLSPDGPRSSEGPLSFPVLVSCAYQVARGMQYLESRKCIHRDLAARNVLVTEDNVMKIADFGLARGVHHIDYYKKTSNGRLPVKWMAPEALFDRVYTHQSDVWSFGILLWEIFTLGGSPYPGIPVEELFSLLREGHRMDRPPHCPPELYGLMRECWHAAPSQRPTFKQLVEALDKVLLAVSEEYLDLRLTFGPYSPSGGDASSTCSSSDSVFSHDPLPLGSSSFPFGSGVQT
Sequence of Hepatocyte growth factor receptor (Homo sapiens) (P08581 whole entry): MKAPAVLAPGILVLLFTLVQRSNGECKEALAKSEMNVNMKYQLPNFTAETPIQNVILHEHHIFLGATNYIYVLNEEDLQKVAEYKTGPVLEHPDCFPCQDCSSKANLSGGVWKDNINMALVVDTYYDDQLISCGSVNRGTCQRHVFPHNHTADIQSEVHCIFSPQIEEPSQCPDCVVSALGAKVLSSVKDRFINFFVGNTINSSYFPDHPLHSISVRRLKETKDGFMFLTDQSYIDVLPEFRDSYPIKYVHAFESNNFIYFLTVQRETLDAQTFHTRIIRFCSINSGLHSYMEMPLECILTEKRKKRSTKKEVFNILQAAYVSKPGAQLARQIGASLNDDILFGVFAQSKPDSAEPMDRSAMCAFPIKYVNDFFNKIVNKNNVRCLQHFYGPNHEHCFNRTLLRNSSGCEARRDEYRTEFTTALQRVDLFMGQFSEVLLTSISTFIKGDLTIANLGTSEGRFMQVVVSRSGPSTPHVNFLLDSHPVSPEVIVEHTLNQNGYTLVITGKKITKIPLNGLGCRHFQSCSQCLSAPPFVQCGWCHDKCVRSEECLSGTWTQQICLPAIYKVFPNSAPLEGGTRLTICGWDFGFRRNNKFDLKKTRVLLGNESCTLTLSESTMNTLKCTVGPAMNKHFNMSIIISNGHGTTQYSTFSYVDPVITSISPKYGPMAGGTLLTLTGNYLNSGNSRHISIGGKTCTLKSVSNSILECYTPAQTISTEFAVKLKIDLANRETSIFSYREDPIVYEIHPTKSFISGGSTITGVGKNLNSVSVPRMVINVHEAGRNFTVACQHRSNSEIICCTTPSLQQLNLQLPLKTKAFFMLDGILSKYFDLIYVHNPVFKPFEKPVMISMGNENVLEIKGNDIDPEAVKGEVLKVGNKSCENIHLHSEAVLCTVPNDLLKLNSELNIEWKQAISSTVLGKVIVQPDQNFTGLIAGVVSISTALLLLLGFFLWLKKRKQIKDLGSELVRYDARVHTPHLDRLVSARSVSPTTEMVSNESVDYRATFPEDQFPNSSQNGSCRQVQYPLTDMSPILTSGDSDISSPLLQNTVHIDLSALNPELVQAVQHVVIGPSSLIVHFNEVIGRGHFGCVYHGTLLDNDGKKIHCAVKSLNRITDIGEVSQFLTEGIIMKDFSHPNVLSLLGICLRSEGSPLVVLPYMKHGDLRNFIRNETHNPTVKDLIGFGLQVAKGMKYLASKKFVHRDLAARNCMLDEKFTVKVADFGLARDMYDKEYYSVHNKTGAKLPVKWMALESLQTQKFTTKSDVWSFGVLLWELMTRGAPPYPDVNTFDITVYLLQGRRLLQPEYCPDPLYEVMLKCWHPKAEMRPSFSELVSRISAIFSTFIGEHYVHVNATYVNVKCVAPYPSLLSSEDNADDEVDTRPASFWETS
Sequence of Casein kinase II subunit alpha (Homo sapiens) (P68400 whole entry, looked up): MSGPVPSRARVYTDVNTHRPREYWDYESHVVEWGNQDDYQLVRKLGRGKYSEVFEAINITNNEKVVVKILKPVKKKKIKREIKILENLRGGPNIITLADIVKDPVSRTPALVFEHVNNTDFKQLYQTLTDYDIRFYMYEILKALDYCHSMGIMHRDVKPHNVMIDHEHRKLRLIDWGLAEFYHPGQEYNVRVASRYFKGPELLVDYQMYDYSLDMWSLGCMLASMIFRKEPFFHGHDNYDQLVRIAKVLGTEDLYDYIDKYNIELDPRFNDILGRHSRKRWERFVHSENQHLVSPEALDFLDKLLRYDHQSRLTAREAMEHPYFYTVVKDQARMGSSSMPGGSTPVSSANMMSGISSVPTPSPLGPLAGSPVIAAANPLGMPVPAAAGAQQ
Sequence of Mast/stem cell growth factor receptor Kit (Homo sapiens), P10721 [L576P] (P10721 whole entry L576P, canonical isoform): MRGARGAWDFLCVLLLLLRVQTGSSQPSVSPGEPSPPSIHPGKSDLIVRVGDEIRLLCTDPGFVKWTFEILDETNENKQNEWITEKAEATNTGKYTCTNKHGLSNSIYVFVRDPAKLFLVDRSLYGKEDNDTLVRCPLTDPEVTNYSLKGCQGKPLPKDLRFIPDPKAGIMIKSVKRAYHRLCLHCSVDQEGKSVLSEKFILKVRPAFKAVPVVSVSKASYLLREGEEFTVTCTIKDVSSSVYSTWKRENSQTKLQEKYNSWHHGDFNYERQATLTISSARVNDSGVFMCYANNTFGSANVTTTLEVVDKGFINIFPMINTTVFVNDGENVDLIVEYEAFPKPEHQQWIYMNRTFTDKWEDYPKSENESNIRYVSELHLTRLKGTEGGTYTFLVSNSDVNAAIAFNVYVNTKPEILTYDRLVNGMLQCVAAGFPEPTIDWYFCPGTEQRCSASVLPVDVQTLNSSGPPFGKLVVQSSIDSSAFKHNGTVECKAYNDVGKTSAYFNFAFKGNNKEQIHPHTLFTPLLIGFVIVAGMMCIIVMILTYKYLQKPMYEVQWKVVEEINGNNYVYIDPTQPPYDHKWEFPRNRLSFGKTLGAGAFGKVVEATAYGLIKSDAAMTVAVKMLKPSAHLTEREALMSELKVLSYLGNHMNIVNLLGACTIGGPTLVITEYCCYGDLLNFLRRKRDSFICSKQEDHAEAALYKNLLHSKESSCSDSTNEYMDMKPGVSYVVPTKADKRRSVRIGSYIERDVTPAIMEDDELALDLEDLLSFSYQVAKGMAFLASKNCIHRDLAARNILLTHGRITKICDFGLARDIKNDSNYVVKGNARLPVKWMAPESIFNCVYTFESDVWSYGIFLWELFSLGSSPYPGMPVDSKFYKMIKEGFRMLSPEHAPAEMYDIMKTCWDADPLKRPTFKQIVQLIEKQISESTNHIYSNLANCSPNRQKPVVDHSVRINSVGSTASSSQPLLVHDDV

CC(=O)c1c(NS(C)(=O)=O)c2cc(-c3ccc(Cl)cc3)c(-c3ccc(Cl)cc3Cl)nc2n(C)c1=O [MRL-CB1-NC]
inactive: inhibition [1] 28.5% | inhibition [2] 39.9% | inhibition [3] 2.99% | residual activity [4] 77% | residual activity [5] 100% | residual activity [6] 97% | residual activity [7] 100% | residual activity [8] 100% | residual activity [9] 67% | residual activity [10] 100% | residual activity [11] 100% | residual activity [12] 100% | residual activity [13] 100% | residual activity [14] 95% | residual activity [15] 87% | inhibition [16] 19.8% | residual activity [17] 80% | residual activity [18] 92% | residual activity [19] 100% | residual activity [20] 93% | residual activity [21] 75% | residual activity [22] 99% | inhibition [23] -4.45% | residual activity [24] 80% | residual activity [25] 89% | residual activity [26] 98% | residual activity [27] 100% | residual activity [28] 89% | residual activity [29] 88% | residual activity [30] 100% | residual activity [31] 100% | residual activity [32] 62% | residual activity [33] 100% | residual activity [34] 100% | residual activity [35] 100% | residual activity [36] 100% | residual activity [37] 100% | residual activity [38] 100% | residual activity [39] 100% | residual activity [40] 92% | residual activity [41] 82% | residual activity [42] 99% | residual activity [43] 100% | residual activity [44] 100% | residual activity [45] 100%

CC(=O)Nc1c(C(C)=O)c(=O)n(C)c2nc(-c3ccc(Cl)cc3Cl)c(-c3ccc(Cl)cc3)cc12 [NAPHTHYRIDINONE]
inactive: inhibition [1] -6.63% | inhibition [2] 14.3% | inhibition [3] 7.96% | residual activity [4] 93% | residual activity [5] 100% | residual activity [6] 100% | residual activity [7] 100% | residual activity [8] 100% | residual activity [9] 100% | residual activity [10] 100% | residual activity [11] 79% | residual activity [12] 100% | residual activity [13] 100% | residual activity [14] 85% | residual activity [15] 100% | inhibition [16] 1.31% | residual activity [17] 75% | residual activity [18] 100% | residual activity [19] 88% | residual activity [20] 100% | residual activity [21] 100% | residual activity [22] 100% | inhibition [23] -7.96% | residual activity [24] 100% | residual activity [25] 100% | residual activity [26] 100% | residual activity [27] 100% | residual activity [28] 100% | residual activity [29] 100% | residual activity [30] 100% | residual activity [31] 100% | residual activity [32] 95% | residual activity [33] 100% | residual activity [34] 100% | residual activity [35] 100% | residual activity [36] 100% | residual activity [37] 100% | residual activity [38] 100% | residual activity [39] 91% | residual activity [40] 100% | residual activity [41] 78% | residual activity [42] 100% | residual activity [43] 100% | residual activity [44] 100% | residual activity [45] 100%
